# According to US5616684A, “Cyclic peptides and use thereof” (priority 1991, dated 1997):
# Non-standard residues stand in square brackets, D forms with d. Residues, ends and D or L forms follow the SMILES beside them. *: point of attachment. d(aIle) = CC[C@H](C)[C@@H](N)C(=O)O; d2Thi = N[C@H](Cc1cccs1)C(=O)O; dPhg = N[C@@H](C(=O)O)c1ccccc1; Bn = c1ccc(C*)cc1
# What was measured:
# [1] = molecular target: T1, endothelin receptor A (ETA) (Sus scrofa, UniProt Q29010); test: Assay of Affinity for Receptor (1): Binding Activity on ETA Receptor; parameters: key to Binding Activity on ET Receptor (R. act.) ETA: relative binding activity; reference cyclic pentapeptide = 1.0; details: specific activity, binding activity of cyclo[-D-Glu-Ala-D-aIle-Leu-D-Trp-] taken as 1.0; porcine heart membrane fraction, 125I-labeled endothelin-1, 25° C., 1 hour
# T1 construct: A membrane fraction prepared from the porcine heart; from tissue; host or cells: porcine heart membrane fraction
# T1 sequence (Q29010 21-427): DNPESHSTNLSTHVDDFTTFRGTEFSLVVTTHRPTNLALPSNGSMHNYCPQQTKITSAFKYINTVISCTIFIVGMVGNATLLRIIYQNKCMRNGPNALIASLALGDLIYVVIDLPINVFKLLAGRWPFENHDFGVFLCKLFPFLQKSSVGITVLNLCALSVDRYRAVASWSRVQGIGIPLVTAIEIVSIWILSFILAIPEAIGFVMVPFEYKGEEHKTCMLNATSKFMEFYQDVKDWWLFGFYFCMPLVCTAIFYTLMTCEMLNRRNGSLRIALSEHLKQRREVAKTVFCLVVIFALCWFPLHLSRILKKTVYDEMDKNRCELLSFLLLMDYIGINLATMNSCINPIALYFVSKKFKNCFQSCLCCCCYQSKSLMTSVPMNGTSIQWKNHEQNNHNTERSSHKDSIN
# In short: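 Porcine heart membranes (0.15 mg/ml) incubated with 125I-endothelin-1 and test peptide for 1 h at 25 °C, then diluted with ice-cold buffer and pelleted at 12,000×g; bound radioactivity gamma-counted. Values expressed as specific activity relative to cyclo[-D-Glu-Ala-D-aIle-Leu-D-Trp-] set at 1.0.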
# [2] = test system: ETB receptor (guinea pig kidney crude receptor membrane fraction); test: ETB Radio Receptor Assay *2; type: binding; details: relative activity (Example 8 given as 100), 125I-endothelin-1, 37° C., 90 minutes
# In short: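 Crude membranes from guinea pig kidney (2.1 μg protein) incubated with 740 Bq ^125I-endothelin-1 and test sample, 90 min at 37 °C, in 50 mM Tris-HCl pH 7.4 with 0.1 mM PMSF, 1 mM EDTA, 0.2% BSA. Bound ligand separated by fast filtration and counted by gamma counter.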
# [3] = molecular target: T2, endothelin receptor B (ETB) (Bos taurus, UniProt P28088); test: Assay of Affinity for Receptor (2): Binding Activity on ETB Receptor *1; parameters: key: relative specific activity, Example 8 compound = 100; details: specific activity, binding activity of the compound of Example 8 taken as 100; bovine brain membrane fraction, 125I labeled endothelin-1, 25° C., 1 hour
# T2 construct: A membrane fraction prepared from the bovine brain; from tissue; host or cells: bovine brain membrane fraction
# T2 sequence (P28088 27-441): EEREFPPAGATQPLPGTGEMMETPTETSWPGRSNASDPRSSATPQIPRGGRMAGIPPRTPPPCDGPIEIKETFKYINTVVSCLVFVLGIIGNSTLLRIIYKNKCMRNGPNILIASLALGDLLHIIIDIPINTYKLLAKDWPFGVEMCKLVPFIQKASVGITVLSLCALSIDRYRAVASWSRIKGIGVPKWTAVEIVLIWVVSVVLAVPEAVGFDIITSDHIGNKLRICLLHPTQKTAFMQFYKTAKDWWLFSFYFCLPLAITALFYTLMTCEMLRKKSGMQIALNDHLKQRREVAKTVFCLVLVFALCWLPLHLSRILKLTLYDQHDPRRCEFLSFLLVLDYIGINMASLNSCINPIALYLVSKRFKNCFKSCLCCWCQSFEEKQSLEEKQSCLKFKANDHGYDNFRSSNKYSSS
# Procedure: Assay of Affinity for Receptor (2) . . . Binding Activity on ETB Receptor *1
# A membrane fraction prepared from the bovine brain was diluted to 0.15 mg/ml by using a buffer solution for assay, and 100 μl of the resulting suspension of the membrane fraction was poured into each assay tube to use for assay. To this suspension of the membrane fraction was added 2 μl of 5 nM ^125 I labeled endothelin-1 solution. Further, 3 μl of a test peptide solution was added thereto, followed by incubation at a temperature of 25° C. for 1 hour. Then, the resulting suspension was diluted with 900 μl of the buffer solution for assay cooled with ice, and thereafter separated into a supernatant and a precipitate by centrifugation at 12,000×g for 10 minutes. Cell membranes and an endothelin receptor B (ETB) embedded therein were contained in the precipitate, and radioactive iodine-labeled endothelin bound to the receptor was also recovered in the precipitate. Accordingly, the amount of radioactive iodine-labeled endothelin bound to the endothelin receptor B (ETB) was determined by measuring the amount of radioactive iodine contained in the precipitate with a gamma-ray counter. The numerical value of ETB shown in Table 1 is the value of specific activity, taking the binding activity of the compound of Example 8 on the receptor B as 100.
# [4] = amide bond; 18-membered ring; HONB ester (HONB/DCC)/TEA; DMF; 5.0 mM; 4 steps
Binding Activity on ET Receptor (R. act.) ETA [1],Binding Activity on ET Receptor (R. act.) ET8 *2 [2],Binding Activity on ET Receptor (R. act.) ET8 *1 [3],Compound,"ring closure, yield after HPLC [4] [%]"
24,18,22,"CC(C)C[C@@H]1NC(=O)[C@@H](CC(C)C)NC(=O)[C@H](CO)NC(=O)[C@H](Cc2c[nH]c3ccccc23)NC(=O)[C@@H](CC(=O)O)NC(=O)[C@@H](Cc2c[nH]c3ccccc23)NC1=O [Example 37, Cyclo[--D--Asp--Trp--Ser--D--Leu--Leu--D--Trp--]] (cyclo(L[dW][dD]WS[dL]))",–
13,170,66,"CC(C)C[C@@H]1NC(=O)[C@@H](CC(C)C)NC(=O)[C@H](COCc2ccccc2)NC(=O)[C@H](Cc2c[nH]c3ccccc23)NC(=O)[C@@H](CC(=O)O)NC(=O)[C@@H](Cc2c[nH]c3ccccc23)NC1=O [Example 38, Cyclo[--D--Asp--Trp--Ser(Bzl)--D--Leu--Leu--D--Trp--]] (cyclo(L[dW][dD]WS(Bn)[dL]))",–
87,180,74,"CC(C)C[C@@H]1NC(=O)[C@@H](c2ccccc2)NC(=O)[C@H](CC(=O)O)NC(=O)[C@H](Cc2c[nH]c3ccccc23)NC(=O)[C@@H](CC(=O)O)NC(=O)[C@@H](Cc2c[nH]c3ccccc23)NC1=O [Example 45, Cyclo[--D--Asp--Trp--Asp--D--Phg--Leu--D--Trp--]] (cyclo(D[dPhg]L[dW][dD]W))",–
4,57,350,"CC(C)C[C@@H]1NC(=O)[C@@H](Cc2cccs2)NC(=O)[C@H](CC(=O)O)NC(=O)[C@H](Cc2c[nH]c3ccccc23)NC(=O)[C@@H](CC(=O)O)NC(=O)[C@@H](Cc2c[nH]c3ccccc23)NC1=O [Example 50, Cyclo[--D--Asp--Trp--Asp--D--Thi--Leu--D--Trp--]] (cyclo(D[d2Thi]L[dW][dD]W))",–
100,290,210,"CC[C@H](C)[C@H]1NC(=O)[C@H](CC(=O)O)NC(=O)[C@H](Cc2c[nH]c3ccccc23)NC(=O)[C@@H](CC(=O)O)NC(=O)[C@@H](Cc2c[nH]c3ccccc23)NC(=O)[C@H](CC(C)C)NC1=O [Example 51, Cyclo[--D--Asp--Trp--Asp--D--aIle--Leu--D--Trp--]] (cyclo(D[d(aIle)]L[dW][dD]W))",–
75,100,240,"CC(C)C[C@@H]1NC(=O)[C@@H](C(C)C)NC(=O)[C@H](CC(=O)O)NC(=O)[C@H](Cc2c[nH]c3ccccc23)NC(=O)[C@@H](CC(=O)O)NC(=O)[C@@H](Cc2c[nH]c3ccccc23)NC1=O [Example 52, Cyclo[--D--Asp--Trp--Asp--D--Val--Leu--D--Trp--]] (cyclo(D[dV]L[dW][dD]W))",–
0.7,22,6.7,"CC(C)C[C@H]1NC(=O)[C@H](CC(=O)O)NC(=O)[C@H](C)NC(=O)[C@@H](CC(=O)O)NC(=O)[C@@H](Cc2c[nH]c3ccccc23)NC(=O)[C@H](Cc2c[nH]c3ccccc23)NC1=O [Example 58, Cyclo[--D--Asp--Ala--Asp--D--Leu--Trp--D--Trp--]] (cyclo(AD[dL]W[dW][dD]))",–
1,44,210,"CC(C)C[C@@H]1NC(=O)[C@@H](Cc2ccccc2)NC(=O)[C@H](CC(=O)O)NC(=O)[C@H](Cc2c[nH]c3ccccc23)NC(=O)[C@@H](CC(=O)O)NC(=O)[C@@H](Cc2c[nH]c3ccccc23)NC1=O [Example 60, Cyclo[--D--Asp--Trp--Asp--D--Phe--Leu--D--Trp--]] (cyclo(D[dF]L[dW][dD]W))",–
750,71,45,cyclo[-D-Asp-Glu(Bzl)-Asp-D-Thg(2)-Leu-D-Trp-] [Example 89],–
–,–,–,cyclo[-D-Asp-Trp-Asp-D-tLeu-Leu-D-Trp-],42.8
